Assays:
Assay type in all cases: cell-based
[1] = molecular target: T1, thromboxane receptor sites (Oryctolagus cuniculus, UniProt Q6WQI8); test: Rabbit Aorta System (inhibition of tension response of spiral strips of thoracic aorta to 11,9-(epoxymethano) PGH2); details: for Kb: Gaddum-Schild Equation, agonist 11,9-(epoxymethano) PGH2, compound added 50 minutes before agonist, 37° C, typical values, read-out: Affinity Constants (KB) Rabbit Aorta (converted)
T1 construct: contraction to 11,9-(epoxymethano) PGH2 (U-46619)
T1 sequence (Q6WQI8 1-233): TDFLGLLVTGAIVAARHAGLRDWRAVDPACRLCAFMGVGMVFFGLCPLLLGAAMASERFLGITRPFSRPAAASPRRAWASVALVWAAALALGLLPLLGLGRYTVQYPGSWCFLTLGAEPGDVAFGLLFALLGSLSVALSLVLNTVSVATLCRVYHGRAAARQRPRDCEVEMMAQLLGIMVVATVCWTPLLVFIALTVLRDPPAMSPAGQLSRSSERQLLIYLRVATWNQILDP
Description: (§1) The compound of Example 2 and various of the compounds of Example 8 are tested in the following three systems.
Sprial strips of thoracic aorta are suspended in Kreb's-Henseleit solution aerated with 95% O2 /5% CO2 and maintained at 37° C. Tension changes are recorded with a Grass FTO3 force transducer. Initially, cumulative dose response curves to the agonist 11,9-(epoxymethano) PGH2 are obtained (typically at concentrations of 2×10^-9, 1×10^-8, 5×10^-8 and 2.5×10^-7 M). In a second experiment, the compound under test is added 50 minutes previous to the addition of the series of agonist doses.
(§2) In the case of each system, the affinity constant, KB, for the compound under test is calculated according to the Gaddum-Schild Equation (based on Law of Mass Action). [formula]

[2] = molecular target: T2, thromboxane receptor sites (Cavia porcellus, UniProt A0A286Y4I8); test: Guinea Pig Trachea System (inhibition of tension response of spiral strips of trachea to 11,9-(epoxymethano) PGH2); details: Gaddum-Schild Equation; agonist 11,9-(epoxymethano) PGH2; atropine sulphate and indomethacin present; compound added 50 minutes before agonist; 37° C; typical values; read-out: Affinity Constants (KB) Guinea Pig Trachea (converted)
T2 construct: from tissue; host or cells: guinea pig trachea, spiral strips
T2 sequence (A0A286Y4I8 1-347): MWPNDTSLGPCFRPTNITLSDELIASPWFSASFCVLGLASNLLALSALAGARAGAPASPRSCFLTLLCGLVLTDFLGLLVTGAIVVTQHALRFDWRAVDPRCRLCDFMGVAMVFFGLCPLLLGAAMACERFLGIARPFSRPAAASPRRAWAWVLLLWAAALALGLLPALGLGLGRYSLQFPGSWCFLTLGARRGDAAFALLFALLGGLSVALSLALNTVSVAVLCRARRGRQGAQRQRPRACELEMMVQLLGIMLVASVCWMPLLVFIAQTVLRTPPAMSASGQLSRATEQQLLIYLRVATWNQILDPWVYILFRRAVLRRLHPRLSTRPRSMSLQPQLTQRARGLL
Description: as §1
Guinea Pig Trachea System
Spiral strips of trachea are suspended in Kreb's-Henseleit solution, additionally containing atropine sulphate (2×10^-8 M) and indomethacin (10^-6), aerated with 95% O2 /5% CO2 and maintained at 37° C. Tension changes are recorded with a Grass FTO3 force transducer. Initially, cumulative dose response curves to the agonist 11,9-(epoxymethano) PGH2 are obtained (typically at the same concentrations as for the rabbit aorta system). In a second experiment, the compound under test is added 50 minutes previous to the addition of the series of agonist doses.
as §2

[3] = molecular target: T3, thromboxane receptor sites (Homo sapiens, UniProt P21731); test: Human Platelet System (inhibition of aggregation by 11,9-(epoxymethano) PGH2 in platelet-rich plasma); details: Gaddum-Schild Equation, agonist 11,9-(epoxymethano) PGH2, compound added 5 minutes before agonist, typical values, read-out: Affinity Constants (KB) Human Platelets (converted)
T3 construct: Platelet-rich plasma is obtained from fresh, citrated human blood; endogenous in cells; host or cells: human platelets in platelet-rich plasma from fresh citrated blood
T3 sequence (P21731 1-343): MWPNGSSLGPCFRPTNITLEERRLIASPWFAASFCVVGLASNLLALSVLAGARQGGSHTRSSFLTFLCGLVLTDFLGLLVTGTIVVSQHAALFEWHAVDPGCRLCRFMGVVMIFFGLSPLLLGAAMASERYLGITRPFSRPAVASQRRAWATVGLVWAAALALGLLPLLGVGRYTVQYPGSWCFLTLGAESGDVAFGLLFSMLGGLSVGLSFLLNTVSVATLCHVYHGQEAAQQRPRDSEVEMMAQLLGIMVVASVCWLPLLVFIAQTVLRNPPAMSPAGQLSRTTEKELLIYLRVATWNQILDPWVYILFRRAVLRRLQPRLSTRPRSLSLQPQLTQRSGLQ
Description: as §1
Platelet-rich plasma is obtained from fresh, citrated human blood. Addition of the agonist 11,9-(epoxymethano) PGH2 (1×10^-7 to 5×10^-7 M) causes immediate aggregation recorded as an increase in light transmission (600 nm). In a second experiment the compound under test is added 5 minutes previous to the addition to the PGH2 analogue. The dose of the PGH2 analogue added is then increased to a level which gives a similar response to that obtained in the absence of antagonist.
as §2

SMILES: O=C(O)CCC/C=C\C[C@H]1[C@H]2CC[C@H](C2)[C@@H]1CNC(=O)Nc1ccccc1 (relative stereo) [--CH2 NHCONHC6 H5, 5-endo-(6'-Carboxyhex-2'Z-enyl)-6-exo-[N-(phenylcarbamoyl)-aminomethyl]-bicyclo[2,2,1]heptane]
- Kb [1]: 1000 nM
- pure antagonist activity in the rabbit aorta system ([1]; in words): pure antagonist activity
- Kb [2]: 323 nM
- Kb [3]: 3570 nM

SMILES: COc1ccc(NC(=O)NCCC2C3C=CC(C3)C2C/C=C\CCCC(=O)O)cc1 (centres unmarked) [--(CH2)2 NHCONHC6 H4 OCH3 (p)]
- Kb [1]: 833 nM
- Kb [2]: 145 nM

SMILES: O=C(O)CCC/C=C\CC1C2C=CC(C2)C1CCNC(=O)Nc1ccccc1 (centres unmarked) [--(CH2)2 NHCONHC6 H5]
- Kb [1]: 345 nM
- Kb [2]: 196 nM
- Kb [3]: 29400 nM

SMILES: COc1ccc(NC(=S)NCCC2C3C=CC(C3)C2C/C=C\CCCC(=O)O)cc1 (centres unmarked) [--(CH2)2 NHCSNHC6 H4 OCH3 (p)]
- Kb [1]: 526 nM
- Kb [3]: 12500 nM

SMILES: COc1ccc(NC(=S)NC(C)CC2C3C=CC(C3)C2C/C=C\CCCC(=O)O)cc1 (centres unmarked) [--CH2 CH(CH3)NHCSNHC6 H4 OCH3 (p)]
- Kb [1]: 1050 nM
- Kb [2]: 123 nM
- Kb [3]: 5000 nM

SMILES: COc1ccc(NC(=S)NCC2C3C=CC(C3)C2C/C=C\CCCC(=O)O)cc1 (centres unmarked) [--CH2 NHCSNHC6 H4 OCH3 (p)]
- Kb [1]: 169 nM
- Kb [2]: 154 nM
- Kb [3]: 13900 nM

Source: patent publication US4628061A, “Prostaglandins” (National Research Development Corporation, priority 1981, dated 1986)
